Assay results from patent publication US20140273006A1, “METHOD OF THERAPY SELECTION FOR PATIENTS WITH CANCER” (NESTEC S.A., priority 2011, published 2014).

Key:
[1] = test system: cell lines with inactive PTEN; test: IC50 of the PI3K inhibitor in cell lines by PTEN status (FIG. 14); type: cell-based, human; details: cell lines with inactive PTEN (point mutation or null mutation)
Experimental: (§1) The relationship between the IC50 of the PI3K inhibitor drug (GDC0941) and activated PI3K levels was analyzed in several cell lines. It was determined that cell lines (e.g., H1651 or H2087) with PI3K activation have low IC50. H1651 cells carry no known genetic mutations but have high EGFR expression. H2087 has NRAS and BRAF mutations. Cell lines (e.g., Calu-6) with two more alterations such as multiple mutations (e.g., MAPK mutations) and PI3K activation had high IC50 values. Thus, phospho-PI3K can be an indicator or predictor of sensitivity to PI3K inhibitors.

[2] = test system: H2087; test: IC50 of the PI3K inhibitor drug (GDC0941) versus activated PI3K levels, H2087; type: cell-based, human; details: H2087, cell line with PI3K activation
Description: (§2) FIG. 13 illustrates that the CEER assay can be used to calculate the IC50 of an anti-cancer drug relative to the level of activated PI3K and other downstream components of the HER1/HER2/cMET pathway. […] In some cancer cells inhibition of PI3K activation corresponds to inhibition of activation of downstream proteins. In addition the extent of the inhibition is specific to the cell line and the inhibitor treatment.
as §1

[3] = test system: Calu-6; test: IC50 of the PI3K inhibitor drug (GDC0941) versus activated PI3K levels, Calu-6; type: cell-based, human; details: Calu-6, two more alterations (multiple mutations and PI3K activation)
Description: as §2, §1

[4] = test system: H1651; test: IC50 of the PI3K inhibitor drug (GDC0941) versus activated PI3K levels, H1651; type: cell-based, human; details: H1651, cell line with PI3K activation
Description: as §2, §1

[5] = test system: PI3K-related pathways; test: CEER-based analysis of BCA clinical samples from patients treated with BYL719; type: in vivo, human
Experimental: CEER analysis includes normalizing the measured expression/activation levels of signaling transduction analytes against standard controls using statistical algorithms. In particular, Relative Fluorescence Unit (RFU) values are converted to Computed Units (CU), a standard functional unit of measure based on cell line controls with known levels of analyte expression. For each slide of the CEER assay, a standard curve of serial diluted cell lysate is prepared for a particular analyte-positive cell line (e.g., HER1-positive cell line is MDA-MB-468; HER2-positive cell line is SKBr3). Thus, normalized levels of each particular analyte and the degree of phosphorylation in each sample can be obtained against standard cell lines.
This example illustrates a CEER-based analysis of BCA clinical samples from patients treated with a PI3K inhibitor, BYL719 (Novartis). In particular, signaling pathway profiles from individual patients are shown to shift during the course of BYL719 treatment. Therefore, CEER-based analysis of PI3K-related pathways allows for responsive, individualized management of BYL719 treatment to improve clinical outcomes. Oncogenic receptor tyrosine kinases (HER1, HER2, HER3, cMET, IGF-1R, and cKIT) were quantified, as well as PI3K and other tyrosine kinase signaling cascade components including SHC, AKT, ERK, MEK, RSK, pRAS 40, RPS6, P70S6K, and PTEN. Levels of total protein and activated protein were measured.

[6] = test system: H1975 cells; test: CEER pathway profiling of H1975 cells after PI3K inhibitor, MEK inhibitor or combination treatment; type: cell-based, human; details: for levels of activated PI3K: H1975 cells treated with either PI3K inhibitor, MEK inhibitor, or combinations; for levels of other activated proteins (p-MEK, p-ERK, p-AKT, p-PRAS40, p-70S6K, and p-RPS6): H1975 cells, in response to treatment
Experimental: (§3) In one particular embodiment, the proximity assay (e.g., CEER) for detecting the activation level or status of an analyte of interest comprises: • (i) incubating the cellular extract with one or a plurality of dilution series of capture antibodies to form a plurality of captured analytes; • (ii) incubating the plurality of captured analytes with detection antibodies comprising one or a plurality of activation state-independent antibodies and one or a plurality of activation state-dependent antibodies specific for the corresponding analytes to form a plurality of detectable captured analytes, • wherein the activation state-independent antibodies are labeled with a facilitating moiety, the activation state-dependent antibodies are labeled with a first member of a signal amplification pair, and the facilitating moiety generates an oxidizing agent which channels to and reacts with the first member of the signal amplification pair; • (iii) incubating the plurality of detectable captured analytes with a second member of the signal amplification pair to generate an amplified signal; and • (iv) detecting the amplified signal generated from the first and second members of the signal amplification pair.
The levels of other downstream signaling components of the pathway were measured, including HER1, HER2, cMET, PI3K, AKT, ERK, PTEN, MEK, p70S6K, PRAS40, RPS6 and PDK. Cell lines derived from non-small cell lung cancer such as NCI-H460, NCI-H647, NCI-H1155, NCI-1299, NCI-1975, NCI-H2228, and NCI-H661 were also used. The different therapies tested included a PI3K inhibitor alone at low or high dose, a MEK inhibitor alone at low or high dose, and a PI3K inhibitor plus a MEK inhibitor together at low dose or high dose. The cells were assayed at either 4 hours after treatment or 24 hours (see, * in FIGS. 6-10) after treatment.

[7] = test system: cell line H460; test: CEER pathway profiling of cell line H460 after PI3K inhibitor, MEK inhibitor or combination treatment; type: cell-based, human; details: PI3K inhibitor alone or in combination with a MEK inhibitor, day 8, 9, 12, 13, 4 hours or 24 hours of drug exposure
Experimental: as §3
The levels of other downstream signaling components of the pathway were measured, including HER1, HER2, cMET, PI3K, AKT, ERK, PTEN, MEK, p70S6K, PRAS40, RPS6 and PDK. […]

[8] = test system: PI3K; test: CEER profile of FNA sample of Patient #3 after PI3K inhibitor treatment; type: in vivo, human; details: Patient #3, FNA sample after treatment; confirmed by CT scan
Experimental: In a retrospective study, a series of samples taken from patients with cancer were evaluated to determine if pathway profiling using the CEER assay is predictive of responsiveness to PI3K treatment. Samples analyzed included those from patients on a therapy time course, e.g., prior to receiving therapy, after initiating therapy, and during the course of therapy.
Following treatment with the PI3K inhibitor drug BAY806946, another sample was taken and analyzed. […] This finding was confirmed by CT scan.

[9] = test system: Stage III triple negative breast cancer; test: Clinical response of patients with triple negative breast cancer to combination therapy; type: in vivo, human; details: Patient #4; combination therapy of Herceptin and Lapatinib
Description: Patient #4 represents a patient diagnosed with Stage III triple negative breast cancer (e.g., ER-, PR-, HER2-). The patient underwent radical mastectomy.
Patient #5 represents a patient diagnosed with Stage III triple negative breast cancer (e.g., ER-, PR-, HER2-). The patient underwent radical mastectomy.

[10] = test system: PI3K, HER2 and IGF1R activation; test: CEER pathway profile of Patient #5 samples before and after treatment; type: in vivo, human; details: Patient #5, after treatment vs baseline
Description: The samples were cerebrospinal fluid (CSF), fine needle aspirate (FNA) and a biopsy.

Structure (SMILES): CS(=O)(=O)N1CCN(Cc2cc3nc(-c4cccc5[nH]ncc45)nc(N4CCOCC4)c3s2)CC1 [GDC0941]
- IC50 values compared with cell lines with PTEN wild-type status [1]: higher
- IC50 [2]: low
- IC50 [3]: high
- IC50 [4]: low

Structure (SMILES): Cc1nc(NC(=O)N2CCC[C@H]2C(N)=O)sc1-c1ccnc(C(C)(C)C(F)(F)F)c1 [BYL719]
- level of activated HER3 ([5]; Patient 1, Day 8 of treatment): increased
- p-AKT, p-pPRAS, p-P70S6, and p-RPS6 ([5]; Patient 1, Day 8 of treatment): downregulation
- total HER3 expression ([5]; Patient 1, Day 8 of treatment): increased
- HER3 expression and activation ([5]; Patient 1, Day 28 of treatment): higher than at Day 8
- p-AKT, p-PRAS, p-P70S6 and p-RPS6 levels ([5]; Patient 1, Day 28 of treatment): higher than at Day 8
- activation of PRAS40 ([5]; Patient 1, course of treatment): initial decrease in activation of PRAS40 was observed, followed by an increase
- activation of AKT ([5]; Patient 1, upon treatment): decreased
- activation of HER3, ERK, MEK, and RSK ([5]; Patient 1, upon treatment): increased
- p-AKT and p-PRAS ([5]; Patient 2, Day 8 of treatment): downregulated
- p-MEK, p-ERK, and p-RSK ([5]; Patient 2, Day 8 of treatment): upregulated
- p-AKT, p-PRAS, p-MEK, p-ERK, and p-RSK ([5]; Patient 2, Day 28): down-regulated
- activation of ERK, MEK, and RSK ([5]; Patient 2, course of treatment): initial increase, followed by a decrease
- activation of AKT and PRAS40 ([5]; Patient 2, upon treatment): decrease
- activated HER1 ([5]; Patient 3, Day 8): upregulated
- activated HER2, HER3 and cMET ([5]; Patient 3, Day 8): down-regulated
- levels of p-AKT, p-PRAS, p-MEK, p-ERK and p-RSK ([5]; Patient 3, Day 8): downregulated
- RTK activation ([5]; Patient 3, upon treatment): general decrease
- PRAS40 activation ([5]; Patient 4): decrease
- p-AKT, p-PRAS, p-MEK, p-ERK, and p-RSK ([5]; Patient 4, Day 8): downregulation
- PRAS40 activation ([5]; Patient 5): decrease
- p-MEK, p-ERK and p-RSK levels ([5]; Patient 5, Day 8 of therapy): Little change
- P-AKT and p-RAS ([5]; Patient 5, on therapy): slightly upregulated
- p-RPS6 ([5]; Patient 5, on therapy): highly upregulated

Structure (SMILES): COc1c(OCCCN2CCOCC2)ccc2c1N=C(NC(=O)c1cnc(N)nc1)N1CCN=C21.Cl.Cl [BAY841236]
- levels of activated PI3K [6]: relatively similar
- levels of other activated proteins (p-MEK, p-ERK, p-AKT, p-PRAS40, p-70S6K, and p-RPS6) [6]: greatly lower
- activated proteins of the HER1/HER2/cMET pathway (p-PI3K, p-AKT, p-PRAS40, p-70S6K, and p-RPS6) [7]: downregulated

Structure (SMILES): COc1c(OCCCN2CCOCC2)ccc2c1N=C(NC(=O)c1cnc(N)nc1)N1CCN=C21 [BAY806946]
- PI3K driven cell proliferation [8]: successfully inhibited

Structure (SMILES): COc1cc(F)c(F)c(Nc2ccc(I)cc2F)c1NS(=O)(=O)C1(C[C@H](O)CO)CC1 [BAY869766]
- levels of activated PI3K [6]: relatively similar
- levels of other activated proteins (p-MEK, p-ERK, p-AKT, p-PRAS40, p-70S6K, and p-RPS6) [6]: greatly lower

Structure (SMILES): CS(=O)(=O)CCNCc1ccc(-c2ccc3ncnc(Nc4ccc(OCc5cccc(F)c5)c(Cl)c4)c3c2)o1 [Lapatinib, lapatinib]
- response to treatment [9]: responded to treatment
- PI3K activation as well as HER2 and IGF1R activation [10]: decreased
